What was measured:
[1] = 101.33 kPa, Crystal, Laser pulse heating
[2] = molar heat capacity at constant pressure; details: 101.33 kPa, Crystal, Small sample (50 mg) DSC

[Ce+4].[O-2].[O-2] [ceric oxide]
Details	molar heat capacity at constant pressure, [2] [J/K/mol]	thermal conductivity, [1] [W/m/K]
298.15 K	–	15.15
323.15 K	57.9	–
373.15 K	62.1	–
423.15 K	65.42	–
473.15 K	67.99	–
523.15 K	69.93	–
573.15 K	71.34	–
623.15 K	72.32	–
673.15 K	72.96	–
723.15 K	73.34	–
773.15 K	73.53	6.05
823.15 K	73.6	–
873.15 K	73.58	–
923.15 K	73.53	–
973.15 K	73.48	–
1023.1 K	73.44	–
1073.2 K	73.46	–
1123.2 K	73.51	–
1173.2 K	73.61	–
1273.2 K	–	2.7

— the NIST ThermoML archive (doi:10.1016/j.tca.2015.08.011)
